ChEMBL document CHEMBL3885861, “Open TG-GATES”

Organism: Rattus norvegicus
Experiment: Open TG-GATES - Regimen: Daily Repeat
Type: toxicity, organism-based, Sprague-Dawley
Design: regimen Daily Repeat, gender Male, age 6 weeks
Conditions: in vivo, po, 30 mg/kg, route gavage, dose level Low; for APTT / Bas / Eos / Fbg / Hb / Ht / Lym / MCH / MCHC / MCV / Mono / Neu / PT / Plat / RBC / Ret / WBC: tissue Blood; for KIDNEY_L / KIDNEY_R / KIDNEY_TOTAL: tissue Kidney; for LIVER: tissue Liver; for A/G / ALP / ALT / AST / BUN / CRE / Ca / Cl / DBIL / GLC / IP / K / LDH / Na / PL / RALB / TBIL / TC / TG / TP / gamma-GTP: tissue Plasma

CC[C@H]1[C@@H]2C[C@H]3[C@@H]4N(C)c5ccccc5[C@]45C[C@@H]([C@@H]2[C@H]5O)N3[C@@H]1O [AJMALINE]
TERMINAL_BW (72 h, time 3 day): 214.3 g
APTT (72 h, time 3 day): 16.2 s
Bas (72 h, time 3 day): 0%
Eos (72 h, time 3 day): 1.2%
Fbg (72 h, time 3 day): 210 mg/dL
Hb (72 h, time 3 day): 13 g/dL
Ht (72 h, time 3 day): 39.3%
Lym (72 h, time 3 day): 78%
MCH (72 h, time 3 day): 21.7 pg
MCHC (72 h, time 3 day): 33%
MCV (72 h, time 3 day): 65.7 fL
Mono (72 h, time 3 day): 8.4%
Neu (72 h, time 3 day): 12.8%
PT (72 h, time 3 day): 11.7 s
Plat (72 h, time 3 day): 118 x10_4/uL
RBC (72 h, time 3 day): 599 x10_4/ul
Ret (72 h, time 3 day): 8.9%
WBC (72 h, time 3 day): 93 x10_2/uL
KIDNEY_L (72 h, time 3 day): 0.9 g
KIDNEY_R (72 h, time 3 day): 0.9 g
KIDNEY_TOTAL (72 h, time 3 day): 1.8 g
LIVER (72 h, time 3 day): 10.4 g
A/G (72 h, time 3 day): 2.1
ALP (72 h, time 3 day): 904.4 IU/L
ALT (72 h, time 3 day): 36.2 IU/L
AST (72 h, time 3 day): 66.6 IU/L
BUN (72 h, time 3 day): 18.2 mg/dL
CRE (72 h, time 3 day): 0.5 mg/dL
Ca (72 h, time 3 day): 11.1 mg/dL
Cl (72 h, time 3 day): 102.6 meq/L
DBIL (72 h, time 3 day): 0.024 mg/dL
GLC (72 h, time 3 day): 198.2 mg/dL
IP (72 h, time 3 day): 7.2 mg/dL
K (72 h, time 3 day): 4.3 meq/L
LDH (72 h, time 3 day): 113 IU/L
Na (72 h, time 3 day): 139.6 meq/L
PL (72 h, time 3 day): 141.4 mg/dL
RALB (72 h, time 3 day): 3.8 g/dL
TBIL (72 h, time 3 day): 0.3 mg/dL
TC (72 h, time 3 day): 78.2 mg/dL
TG (72 h, time 3 day): 85 mg/dL
TP (72 h, time 3 day): 5.6 g/dL
gamma-GTP (72 h, time 3 day): 0.8 IU/L
TERMINAL_BW ([…], time 7 day): 248 g
TERMINAL_BW ([…], time 14 day): 297.8 g
TERMINAL_BW ([…], time 28 day): 375.4 g
APTT ([…], time 7 day): 17 s
Bas ([…], time 7 day): 0%
Eos ([…], time 7 day): 1.2%
Fbg ([…], time 7 day): 229.4 mg/dL
Hb ([…], time 7 day): 13 g/dL
Ht ([…], time 7 day): 39.1%
Lym ([…], time 7 day): 75.4%
MCH ([…], time 7 day): 21.4 pg
MCHC ([…], time 7 day): 33.3%
MCV ([…], time 7 day): 64.2 fL
Mono ([…], time 7 day): 10.2%
Neu ([…], time 7 day): 13.6%
PT ([…], time 7 day): 11.4 s
Plat ([…], time 7 day): 118.3 x10_4/uL
RBC ([…], time 7 day): 609.8 x10_4/ul
Ret ([…], time 7 day): 7%
WBC ([…], time 7 day): 106.1 x10_2/uL
APTT ([…], time 14 day): 16.7 s
Bas ([…], time 14 day): 0%
Eos ([…], time 14 day): 1%
Fbg ([…], time 14 day): 224 mg/dL
Hb ([…], time 14 day): 13.9 g/dL
Ht ([…], time 14 day): 41.9%
Lym ([…], time 14 day): 85%
MCH ([…], time 14 day): 20.3 pg
MCHC ([…], time 14 day): 33.1%
MCV ([…], time 14 day): 61.4 fL
Mono ([…], time 14 day): 4.2%
Neu ([…], time 14 day): 10%
PT ([…], time 14 day): 11.1 s
Plat ([…], time 14 day): 121.6 x10_4/uL
RBC ([…], time 14 day): 683.4 x10_4/ul
Ret ([…], time 14 day): 4.3%
WBC ([…], time 14 day): 138.2 x10_2/uL
APTT ([…], time 28 day): 17.2 s
Bas ([…], time 28 day): 0%
Eos ([…], time 28 day): 1%
Fbg ([…], time 28 day): 221.6 mg/dL
Hb ([…], time 28 day): 15.4 g/dL
Ht ([…], time 28 day): 45.5%
Lym ([…], time 28 day): 83%
MCH ([…], time 28 day): 20.4 pg
MCHC ([…], time 28 day): 33.8%
MCV ([…], time 28 day): 60.3 fL
Mono ([…], time 28 day): 4.6%
Neu ([…], time 28 day): 11.4%
PT ([…], time 28 day): 11.2 s
Plat ([…], time 28 day): 96.6 x10_4/uL
RBC ([…], time 28 day): 754.8 x10_4/ul
Ret ([…], time 28 day): 2.1%
WBC ([…], time 28 day): 110.2 x10_2/uL
KIDNEY_L ([…], time 7 day): 1 g
KIDNEY_R ([…], time 7 day): 1 g
KIDNEY_TOTAL ([…], time 7 day): 2 g
KIDNEY_L ([…], time 14 day): 1.2 g
KIDNEY_R ([…], time 14 day): 1.2 g
KIDNEY_TOTAL ([…], time 14 day): 2.3 g
KIDNEY_L ([…], time 28 day): 1.3 g
KIDNEY_R ([…], time 28 day): 1.3 g
KIDNEY_TOTAL ([…], time 28 day): 2.7 g
LIVER ([…], time 7 day): 12 g
LIVER ([…], time 14 day): 13.8 g
LIVER ([…], time 28 day): 16.1 g
A/G ([…], time 7 day): 1.8
ALP ([…], time 7 day): 975.8 IU/L
ALT ([…], time 7 day): 34.8 IU/L
AST ([…], time 7 day): 65.6 IU/L
BUN ([…], time 7 day): 20.2 mg/dL
CRE ([…], time 7 day): 0.5 mg/dL
Ca ([…], time 7 day): 11.4 mg/dL
Cl ([…], time 7 day): 104.4 meq/L
DBIL ([…], time 7 day): 0.012 mg/dL
GLC ([…], time 7 day): 196.8 mg/dL
IP ([…], time 7 day): 7.3 mg/dL
K ([…], time 7 day): 4.7 meq/L
LDH ([…], time 7 day): 119.6 IU/L
Na ([…], time 7 day): 141.4 meq/L
PL ([…], time 7 day): 160 mg/dL
RALB ([…], time 7 day): 3.8 g/dL
TBIL ([…], time 7 day): 0.3 mg/dL
TC ([…], time 7 day): 82 mg/dL
TG ([…], time 7 day): 123.2 mg/dL
TP ([…], time 7 day): 5.9 g/dL
gamma-GTP ([…], time 7 day): 1.4 IU/L
A/G ([…], time 14 day): 2.2
ALP ([…], time 14 day): 942.2 IU/L
ALT ([…], time 14 day): 32.4 IU/L
AST ([…], time 14 day): 61 IU/L
BUN ([…], time 14 day): 20 mg/dL
CRE ([…], time 14 day): 0.5 mg/dL
Ca ([…], time 14 day): 10.9 mg/dL
Cl ([…], time 14 day): 105.2 meq/L
DBIL ([…], time 14 day): 0.01 mg/dL
GLC ([…], time 14 day): 201 mg/dL
IP ([…], time 14 day): 7.1 mg/dL
K ([…], time 14 day): 4.5 meq/L
LDH ([…], time 14 day): 104.8 IU/L
Na ([…], time 14 day): 141.4 meq/L
PL ([…], time 14 day): 157.6 mg/dL
RALB ([…], time 14 day): 3.9 g/dL
TBIL ([…], time 14 day): 0.3 mg/dL
TC ([…], time 14 day): 80 mg/dL
TG ([…], time 14 day): 106.8 mg/dL
TP ([…], time 14 day): 5.8 g/dL
gamma-GTP ([…], time 14 day): 1.8 IU/L
A/G ([…], time 28 day): 1.8
ALP ([…], time 28 day): 659.2 IU/L
ALT ([…], time 28 day): 30.8 IU/L
AST ([…], time 28 day): 62.8 IU/L
BUN ([…], time 28 day): 19.6 mg/dL
CRE ([…], time 28 day): 0.6 mg/dL
Ca ([…], time 28 day): 10.5 mg/dL
Cl ([…], time 28 day): 105.2 meq/L
DBIL ([…], time 28 day): 0.008 mg/dL
GLC ([…], time 28 day): 198.2 mg/dL
IP ([…], time 28 day): 6.2 mg/dL
K ([…], time 28 day): 4.5 meq/L
LDH ([…], time 28 day): 109.6 IU/L
Na ([…], time 28 day): 142.4 meq/L
PL ([…], time 28 day): 158.2 mg/dL
RALB ([…], time 28 day): 3.9 g/dL
TBIL ([…], time 28 day): 0.3 mg/dL
TC ([…], time 28 day): 71.8 mg/dL
TG ([…], time 28 day): 190.2 mg/dL
TP ([…], time 28 day): 6.1 g/dL
gamma-GTP ([…], time 28 day): 1 IU/L
